# In patent US20150126519A1, “ANTIBIOTIC COMPOUNDS AND COMPOSITIONS, AND METHODS FOR IDENTIFICATION THEREOF” (Fred Hutchinson Cancer Research Center, priority 2012, published 2015):
# Entries after “also recorded” stand apart in the source; their conditions may differ. Where two headings read alike, the source gives them in different places.
# Assays:
# H. pylori AddAB = H. pylori AddAB (Helicobacter pylori, UniProt O25052+O26077); assay: biochemical; format: biochemical; conditions: purified H. pylori AddAB
# How it was run: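 Nuclease activity measured as TCA-soluble radioactivity from phage T7 [3H] DNA (2 μg/ml; 6 μM nucleotides), 20 min at 37 °C in 50 mM Tris-HCl pH 8.5, 10 mM MgCl2, 1 mM DTT, 50 μM ATP. Compounds preincubated with enzyme on ice; final DMSO 5.0%; scintillation counting.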
# [1] = tested on: phage λ recombination dependent on RecBCD; assay: Phage λ recombination in strain V66; format: cell-based, E. coli
# Chi hotspot activity = Chi hotspot activity in λ crosses; format: cell-based, E. coli
# E. coli gyrase = E. coli gyrase (Escherichia coli, UniProt P0AES4+P0AES6); conditions: cited: Zweerink 1986; Shen 1985; cited from earlier work
# E. coli = assay: Growth of E. coli without phage infection
# Protocol: Data are the mean and SEM of 4 wells in 2 independent experiments.
# This assay was identical to the AddAB (strain V3065) screening assay, except that no phage was added to the wells.
# [2] = tested on: E. coli Hfr recombination; assay: E. coli Hfr recombination (RecBCD pathway, strain V66 x V1306); conditions: for activity at 200 µM: read-out: Relative recombinant frequency, E. coli Hfr recombination at 200 μM compound, 200 μM
# Protocol: E. coli Hfr recombination, phage λ recombination, and Chi hotspot activity assays were conducted as described by Schultz, D. W.; Taylor, A. F.; Smith, G. R., J. Bacteriol.
# Chain of H. pylori AddAB (O25052 entry or part of it): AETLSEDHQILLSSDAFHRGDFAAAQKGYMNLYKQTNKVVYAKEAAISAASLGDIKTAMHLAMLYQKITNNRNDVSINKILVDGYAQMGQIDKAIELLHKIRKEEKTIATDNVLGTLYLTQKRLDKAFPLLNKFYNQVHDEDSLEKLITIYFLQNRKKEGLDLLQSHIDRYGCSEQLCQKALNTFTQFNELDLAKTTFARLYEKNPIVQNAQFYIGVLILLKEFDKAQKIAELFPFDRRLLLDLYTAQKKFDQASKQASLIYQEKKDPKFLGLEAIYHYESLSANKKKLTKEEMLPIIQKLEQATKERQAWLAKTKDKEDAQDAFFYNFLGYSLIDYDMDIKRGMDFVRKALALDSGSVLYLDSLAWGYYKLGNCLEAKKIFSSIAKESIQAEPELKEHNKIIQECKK
# Chain of H. pylori AddAB (O26077 entry or part of it): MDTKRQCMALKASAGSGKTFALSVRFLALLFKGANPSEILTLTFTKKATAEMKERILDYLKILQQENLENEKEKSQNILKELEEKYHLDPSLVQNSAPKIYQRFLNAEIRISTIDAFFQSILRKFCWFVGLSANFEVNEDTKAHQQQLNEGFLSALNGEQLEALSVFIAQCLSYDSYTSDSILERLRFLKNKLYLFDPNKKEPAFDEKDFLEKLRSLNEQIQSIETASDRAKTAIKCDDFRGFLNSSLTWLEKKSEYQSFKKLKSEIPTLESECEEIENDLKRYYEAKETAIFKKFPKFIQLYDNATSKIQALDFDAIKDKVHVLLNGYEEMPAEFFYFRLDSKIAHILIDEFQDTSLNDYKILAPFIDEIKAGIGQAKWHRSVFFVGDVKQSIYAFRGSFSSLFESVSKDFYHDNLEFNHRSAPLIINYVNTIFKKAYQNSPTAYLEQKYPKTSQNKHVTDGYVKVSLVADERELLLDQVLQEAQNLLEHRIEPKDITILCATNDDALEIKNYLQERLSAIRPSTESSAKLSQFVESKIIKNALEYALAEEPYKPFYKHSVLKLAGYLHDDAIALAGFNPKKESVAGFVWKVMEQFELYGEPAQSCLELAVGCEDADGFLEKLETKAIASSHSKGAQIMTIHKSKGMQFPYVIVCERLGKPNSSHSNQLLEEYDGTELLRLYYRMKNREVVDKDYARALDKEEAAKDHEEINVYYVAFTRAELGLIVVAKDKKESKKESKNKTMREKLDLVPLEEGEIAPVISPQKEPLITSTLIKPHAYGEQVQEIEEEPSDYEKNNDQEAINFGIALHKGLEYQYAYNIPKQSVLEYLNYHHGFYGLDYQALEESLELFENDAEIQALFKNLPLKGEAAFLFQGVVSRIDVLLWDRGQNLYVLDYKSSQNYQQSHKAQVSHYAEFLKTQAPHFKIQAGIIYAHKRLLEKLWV
# Chain of E. coli gyrase (P0AES4 whole entry, one chain of several): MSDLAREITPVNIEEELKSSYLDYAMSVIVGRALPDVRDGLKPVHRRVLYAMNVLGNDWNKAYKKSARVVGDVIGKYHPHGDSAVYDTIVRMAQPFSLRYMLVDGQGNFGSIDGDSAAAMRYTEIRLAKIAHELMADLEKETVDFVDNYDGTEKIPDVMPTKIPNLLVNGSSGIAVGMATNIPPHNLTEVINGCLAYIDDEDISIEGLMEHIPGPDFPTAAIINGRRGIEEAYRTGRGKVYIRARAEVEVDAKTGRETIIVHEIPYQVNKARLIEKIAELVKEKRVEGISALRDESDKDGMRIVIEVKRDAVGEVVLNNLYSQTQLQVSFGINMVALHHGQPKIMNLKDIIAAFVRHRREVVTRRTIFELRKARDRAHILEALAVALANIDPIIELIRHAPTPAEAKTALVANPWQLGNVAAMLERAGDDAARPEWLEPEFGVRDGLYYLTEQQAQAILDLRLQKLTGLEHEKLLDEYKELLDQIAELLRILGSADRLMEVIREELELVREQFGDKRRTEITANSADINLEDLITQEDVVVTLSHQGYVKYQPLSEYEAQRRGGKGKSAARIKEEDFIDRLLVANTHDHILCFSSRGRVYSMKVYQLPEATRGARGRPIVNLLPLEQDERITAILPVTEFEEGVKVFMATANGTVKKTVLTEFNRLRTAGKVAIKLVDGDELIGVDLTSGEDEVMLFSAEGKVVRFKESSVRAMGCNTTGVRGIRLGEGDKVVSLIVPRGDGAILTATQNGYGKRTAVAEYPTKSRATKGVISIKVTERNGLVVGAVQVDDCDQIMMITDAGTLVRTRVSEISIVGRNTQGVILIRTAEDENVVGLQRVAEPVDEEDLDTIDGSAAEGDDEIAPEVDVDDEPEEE
compound,measurement,setting,value
"CCn1cc(C(=O)O)c(=O)c2cnc(N3CCNCC3)nc21 [Compound 2, pipemidic acid, reference compound]",inhibition of AddAB nuclease activity (in words),H. pylori AddAB,did not inhibit either purified enzyme; also recorded: did not detectably inhibit
same,inhibition of phage λ recombination (in words),[1],strongly inhibited
same,Chi hotspot activity at 200 μM compound,Chi hotspot activity,"3.1, 3.5"
same,Chi hotspot activity lowered to a value of,"Chi hotspot activity; about 5 in wild-type, 1 in recBCD null mutants",about 3
same,DNA gyrase inhibition (literature),E. coli gyrase,known to be inhibited by Compound 2
same,growth of cells without phage infection (in words),"E. coli; FIG. 11, compound 50 μM",inhibited growth of cells with either enzyme even without phage infection; also recorded: inhibited E. coli growth with or without addition of phage
same,cell growth without T4 gene 2 mutant infection (in words),E. coli; compounds at 40 μM,inhibit cell growth without T4 gene 2 mutant infection
same,inhibition of E. coli Hfr recombination (in words),[2],strongly inhibited
same,IC50,"[2]; Escherichia coli, read-out: IC50 for inhibition of Hfr recombination",< 1000 nM
same,activity at 200 µM,"[2]; Escherichia coli, experiment 1 (first value), percentage of that without compound (8.7% His+ StrR per viable Hfr cell)",0.2%
same,activity at 200 µM,"[2]; Escherichia coli, experiment 2 (second value), percentage of that without compound (8.9%)",0.4%
